We go through 33 compounds from patent publication US20260258025A1, “INHIBITORS OF TDP-43 AND TAU AGGREGATION” (Aquinnah Pharmaceuticals, inc., priority 2023, published 2026).

Where only a bound is given, the exact number is not on record here.

In this experiment the test system is TDP-43 aggregation. Nature of the experiment: TDP-43 aggregation assay in SY5Y TDP-43WT cells (high content imaging). It is filed as cell-based. The following applies: Homo sapiens, tetracycline induction 24 hrs, 1 hour compound pre-treatment, sodium arsenite 23 hrs, 8-point dose curve, percentage of cells with TDP-43 aggregates, read-out: IC50, Inhibition of TDP-43 Aggregation. On the procedure: Exemplary compounds disclosed herein were evaluated for efficacy in inhibiting TDP-43 inclusions cellular imaging-based assays.
The cellular model was in human neuroblastoma SH SYSY cells (ATCC, cat #: CRL-2266). The parent cell line was first engineered to stably express a tetracycline repressor protein (designated as TREx-SY5Y cells, customer cell line development by ThermoFisher). Wild-type human TDP-43 with a C-terminus eGFP tag was synthesized and cloned into pcDNA5/TO expression vector (ThermoFisher). The plasmid was transfected into TREx-SY5Y cells using Lipofectamine 2000 and hygromycin resistant colonies were selected. Expression of TDP-43WT::eGFP was examined under fluorescent microscopy and Western blot upon tetracycline induction. The clone that was used for TDP-43 aggregation assay is referred to as SY5Y TDP-43WT cells hereafter.
Compound inhibition of TDP-43 aggregation was tested in an 8-point dose curve in 96-well format. Briefly, TDP-43WT::eGFP expression was induced with […] for 24 hrs (SY5Y TDP-43WT cells). The cells were then pre-treated for 1 hour with exemplary compounds before adding sodium arsenite to a final concentration of […] and incubated for another 23 hrs. At the end of the treatment the cell monolayers were washed in PBS and fixed in 4% paraformaldehyde (PFA), diluted from 16% stock (Electron Microscopy Sciences cat: #15710-S). The inhibitory effect on TDP-43 aggregation was measured using CellInsight CX7 high content imager (ThermoFisher). The percentage of cells with TDP-43 aggregates was calculated based on the total number of cells identified by DAPI staining. An 8-point dose response curve was generated, and the IC50 for each compound tested was determined (Table 3).
In Table 3 below, A indicates an IC50 (nM)<500 nM, B indicates an IC50 (nM) 500 nM to <1000 nM, C indicates an IC50 (nM) 1000 nM to <2000 nM, D indicates an IC50 (nM) 2000 nM to <6000 nM, and E indicates an IC50 (nM) 6000 nM to ≤10000 nM.
In general, IC50 refers to the concentration needed to halve the response being measured. In the case of `Cc1cc(-c2ccc3c(c2)N(C)CCC3)sc1C(=O)N1CC[C@H](N)C1` [Compound 196, (S)-(3-aminopyrrolidin-1-yl)(3-methyl-5-(1-methyl-1,2,3,4-tetrahydroquinolin-7-yl)thiophen-2-yl)methanone], the 50% inhibitory concentration (IC50) was 6000 to 10000 nM. With `Cc1cc(-c2ccc(-c3ccccc3)cc2)sc1C(=O)N1CC[C@H](N)C1` [Compound 234], the IC50 lay in the range of 2000 to 6000 nM.

Consider `Cc1cc(-c2cc(Cl)cc(Cl)c2)sc1C(=O)N1CC[C@H](N)C1` [Compound 245], for which the 50% inhibitory concentration (IC50) fell in the range of 6000 to 10000 nM. Then `Cc1cc(-c2ccc(C3(N(C)C)CCCC3)cc2)sc1C(=O)N1CC[C@H](N)C1` [Compound 193, (S)-(3-aminopyrrolidin-1-yl){5[4-(1-dimethylaminocyclopentyl)phenyl]-3-methylthiophen-2-yl}methanone], with 500 to 1000 nM; and `CCc1cc(-c2ccc(C3CCN(C4CCOCC4)CC3)c(F)c2)sc1C(=O)N1CC[C@H](N)C1` [Compound 291, (S)-(3-aminopyrrolidin-1-yl)(3-ethyl-5-(3-fluoro-4-(1-(tetrahydro-2H-pyran-4-yl)piperidin-4-yl)phenyl)thiophen-2-yl)methanone], with under 500 nM; and `Cc1cc(-c2ccc(C3=CCCCC3)cc2)sc1C(=O)N1CC[C@H](N)C1` [Compound 224], with 6000 to 10000 nM. Under `Cc1cc(-c2ccc(C3CCN(C4CCC4)CC3)c(F)c2)sc1C(=O)N1CC[C@H](N)C1` [Compound 279, (S)-(3-aminopyrrolidin-1-yl)(5-(4-(1-cyclobutylpiperidin-4-yl)-3-fluorophenyl)-3-methylthiophen-2-yl)methanone] stands under 500 nM; under `N[C@H]1CCN(C(=O)c2sc(-c3ccc(C4CCN(C5CCCCC5)CC4)c(F)c3)cc2Cl)C1` [Compound 269, (S)-(3-aminopyrrolidin-1-yl)(3-chloro-5-(4-(1-cyclohexylpiperidin-4-yl)-3-fluorophenyl)thiophen-2-yl)methanone], under 500 nM.

On to `Cc1cc(-c2ccc(COC3CCOCC3)cc2)sc1C(=O)N1CC[C@H](N)C1` [Compound 202, (S)-(3-aminopyrrolidin-1-yl)(3-methyl-5-(4-((tetrahydro-2H-pyran-4-yloxy)methyl)phenyl)thiophen-2-yl)methanone], for which the IC50 was 1000 to 2000 nM. In the case of `Cc1cc(-c2ccc(C3CCN(C4CCNC4)CC3)cc2)sc1C(=O)N1CC[C@H](N)C1` (stereo partly drawn) [Compound 171, ((S)-3-aminopyrrolidin-1-yl)(3-methyl-5-(4-(1-(pyrrolidin-3-yl)piperidin-4-yl)phenyl)thiophen-2-yl)methanone], the half-maximal inhibitory concentration (IC50) was 500 to 1000 nM. Then `Cc1cc(-c2ccc(C3CCN(C4CCOCC4)CC3)c(F)c2)sc1C(=O)N1CC[C@H](N)C1` [Compound 296, (S)-(3-aminopyrrolidin-1-yl)(5-(3-fluoro-4-(1-(tetrahydro-2H-pyran-4-yl)piperidin-4-yl)phenyl)-3-methylthiophen-2-yl)methanone], with under 500 nM. Under `Cc1cc(-c2ccc(C3CCN(C4COC4)CC3)c(F)c2)sc1C(=O)N1CC[C@H](N)C1` [Compound 264, (S)-(3-aminopyrrolidin-1-yl)(5-(3-fluoro-4-(1-(oxetan-3-yl)piperidin-4-yl)phenyl)-3-methylthiophen-2-yl)methanone] stands under 500 nM; under `CC(C)(O)CN1CCC(c2ccc(-c3cc(Cl)c(C(=O)N4CC[C@H](N)C4)s3)cc2F)CC1` [Compound 256, (S)-(3-aminopyrrolidin-1-yl)(3-chloro-5-(3-fluoro-4-(1-(2-hydroxy-2-methylpropyl)piperidin-4-yl)phenyl)thiophen-2-yl)methanone], under 500 nM. Under `COCCCN1CCC(c2ccc(-c3cc(C)c(C(=O)N4CC[C@H](N)C4)s3)cc2F)CC1` [Compound 275, (S)-(3-aminopyrrolidin-1-yl)(5-(3-fluoro-4-(1-(3-methoxypropyl)piperidin-4-yl)phenyl)-3-methylthiophen-2-yl)methanone] stands under 500 nM; under `Cc1cc(-c2ccc(C3CCCCC3)cc2)sc1C(=O)N1CC[C@H](N)C1` [Compound 238], 6000 to 10000 nM. For the compound `Cc1cc(-c2ccc(-c3cn[nH]c3)cc2)sc1C(=O)N1CC[C@H](N)C1` [Compound 242], the IC50 was under 500 nM. Turning to `N[C@H]1CCN(C(=O)c2sc(-c3ccc(C4CCN(C5CCOCC5)CC4)cc3)cc2Br)C1` [Compound 255, (S)-(3-aminopyrrolidin-1-yl)(3-bromo-5-(4-(1-(tetrahydro-2H-pyran-4-yl)piperidin-4-yl)phenyl)thiophen-2-yl)methanone], the IC50 was under 500 nM. `Cc1cc(-c2ccc(CN)cc2)sc1C(=O)N1CC[C@H](N)C1` [Compound 219]: the 50% inhibitory concentration (IC50) is under 500 nM. Under `Cc1cc(-c2ccc(C3CCOCC3)cc2)sc1C(=O)N1CC[C@H](N)C1` [Compound 243] stands under 500 nM; under `Cc1cc(-c2ccc3c(c2)CN(C)CC3)sc1C(=O)N1CC[C@H](N)C1` [Compound 189], under 500 nM. In the case of `CCc1ccc(-c2cc(C)c(C(=O)N3CC[C@H](N)C3)s2)cc1` [Compound 228], the IC50 fell in the range of 500 to 1000 nM. Regarding `Cc1cc(-c2ccc(C3(N(C)C)CCCCC3)cc2)sc1C(=O)N1CC[C@H](N)C1` [Compound 192, (S)-(3-aminopyrrolidin-1-yl){5-[4-(1-dimethylaminocyclohexyl)phenyl]-3-methylthiophen-2-yl}methanone], the IC50 was 2000 to 6000 nM. Then `Cc1ccc(-c2cc(C)c(C(=O)N3CC[C@H](N)C3)s2)cc1` [Compound 225], with under 500 nM. For the compound `Cc1cc(-c2ccc(C3CCN(C4CCOCC4)CC3)c(OC(F)(F)F)c2)sc1C(=O)N1CC[C@H](N)C1` [Compound 261, (S)-(3-aminopyrrolidin-1-yl)(3-methyl-5-(4-(1-(tetrahydro-2H-pyran-4-yl)piperidin-4-yl)-3-(trifluoromethoxy)phenyl)thiophen-2-yl)methanone], the half-inhibitory concentration (IC50) fell in the range of 1000 to 2000 nM.

As for `CCc1cc(-c2ccc(C3CCN(C4CCOCC4)CC3)cc2)sc1C(=O)N1CC[C@H](N)C1` [Compound 289, (S)-(3-aminopyrrolidin-1-yl)(3-ethyl-5-(4-(1-(tetrahydro-2H-pyran-4-yl)piperidin-4-yl)phenyl)thiophen-2-yl)methanone], the IC50 was under 500 nM. Then `Cc1cc(-c2ccc(C3CCN(C4CCCCC4)CC3)c(F)c2)sc1C(=O)N1CC[C@H](N)C1` [Compound 277, (S)-(3-aminopyrrolidin-1-yl)(5-(4-(1-cyclohexylpiperidin-4-yl)-3-fluorophenyl)-3-methylthiophen-2-yl)methanone], with under 500 nM.

On to `Cc1cc(-c2ccc(C3=CCOCC3)cc2)sc1C(=O)N1CC[C@H](N)C1` [Compound 236], for which the IC50 is under 500 nM. `COC(C)(C)CN1CCC(c2ccc(-c3cc(C)c(C(=O)N4CC[C@H](N)C4)s3)cc2F)CC1` [Compound 254, (S)-(3-aminopyrrolidin-1-yl)(5-(3-fluoro-4-(1-(2-methoxy-2-methylpropyl)piperidin-4-yl)phenyl)-3-methylthiophen-2-yl)methanone]: the IC50 was under 500 nM.

Take `Cc1cc(-c2ccc(C3CCN(C4CN(C)C4)CC3)cc2)sc1C(=O)N1CC[C@H](N)C1` [Compound 173, (S)-(3-aminopyrrolidin-1-yl)(3-methyl-5-(4-(1-(1-methylazetidin-3-yl)piperidin-4-yl)phenyl)thiophen-2-yl)methanone]: the IC50 is under 500 nM. For the compound `COCCN1CCC(c2ccc(-c3cc(Cl)c(C(=O)N4CC[C@H](N)C4)s3)cc2)CC1` [Compound 258, (S)-(3-aminopyrrolidin-1-yl)(3-chloro-5-(4-(1-(2-methoxyethyl)piperidin-4-yl)phenyl)thiophen-2-yl)methanone], the concentration for half-maximal inhibition (IC50) is under 500 nM. In the case of `C#CCOCCOCCN1CCC(c2ccc(-c3cc(C)c(C(=O)N4CC[C@H](N)C4)s3)cc2)CC1` [Compound 290, (S)-(3-aminopyrrolidin-1-yl)(3-methyl-5-(4-(1-(2-(2-(prop-2-yn-1-yloxy)ethoxy)ethyl)piperidin-4-yl)phenyl)thiophen-2-yl)methanone], the half-maximal inhibitory concentration (IC50) was under 500 nM.

Take `COC(C)CN1CCC(c2ccc(-c3cc(Cl)c(C(=O)N4CC[C@H](N)C4)s3)cc2F)CC1` (stereo partly drawn) [Compound 250, ((S)-3-aminopyrrolidin-1-yl)(3-chloro-5-(3-fluoro-4-(1-(2-methoxypropyl)piperidin-4-yl)phenyl)thiophen-2-yl)methanone]: the IC50 was under 500 nM. For the compound `Cc1cc(-c2ccc3c(c2)CCN(C)C3)sc1C(=O)N1CC[C@H](N)C1` [Compound 191, (S)-(3-aminopyrrolidin-1-yl)(3-methyl-5-(2-methyl-1,2,3,4-tetrahydroisoquinolin-6-yl)thiophen-2-yl)methanone], the IC50 was under 500 nM.
